Data: ChEMBL document CHEMBL1909046, “DrugMatrix in vitro pharmacology data”

Experiments:
[1] = target: T1, Alpha-2A adrenergic receptor (Homo sapiens, UniProt P08913); type: cell membranes, Sf9, Membrane; details: for Ki: read-out: Ki; for all read-outs here: in other assays of this panel Not Active means under 50% inhibition at 10 µM
T1 sequence (P08913 whole entry): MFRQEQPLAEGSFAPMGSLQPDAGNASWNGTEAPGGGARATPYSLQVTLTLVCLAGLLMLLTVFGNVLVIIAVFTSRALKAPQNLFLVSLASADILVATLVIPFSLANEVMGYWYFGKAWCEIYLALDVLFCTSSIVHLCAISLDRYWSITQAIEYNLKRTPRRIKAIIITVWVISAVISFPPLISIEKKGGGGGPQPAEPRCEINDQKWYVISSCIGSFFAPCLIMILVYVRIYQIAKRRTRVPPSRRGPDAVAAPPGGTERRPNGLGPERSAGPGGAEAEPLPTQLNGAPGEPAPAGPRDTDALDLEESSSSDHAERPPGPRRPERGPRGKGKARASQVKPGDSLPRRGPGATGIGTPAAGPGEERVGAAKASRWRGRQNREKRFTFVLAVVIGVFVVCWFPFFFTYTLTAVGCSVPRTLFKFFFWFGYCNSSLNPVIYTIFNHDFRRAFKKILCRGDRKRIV

Vasopressin V1a receptor = Vasopressin V1a receptor (Homo sapiens, UniProt P37288); type: cell membranes, Membrane; details: hek293; note: in other assays of this panel Not Active means under 50% inhibition at 10 µM
Carbonic anhydrase 2 = Carbonic anhydrase 2 (Homo sapiens, UniProt P00918); assay: DRUGMATRIX: Carbonic Anhydrase II enzyme inhibition (substrate: 4-Nitrophenyl acetate (4-NPA)); type: tissue-based, Erythrocyte; details: erythrocyte; Not Active = under 50% inhibition at 10 µM
[2] = target: C-C chemokine receptor type 2 (Homo sapiens, UniProt P41597); type: cell membranes, Membrane; details: cho-k1; note: in other assays of this panel Not Active means under 50% inhibition at 10 µM
[3] = target: T2, C-C chemokine receptor type 4 (Homo sapiens, UniProt P51679); type: cell membranes, Membrane; details: chem-1; note: in other assays of this panel Not Active means under 50% inhibition at 10 µM
T2 sequence (P51679 whole entry): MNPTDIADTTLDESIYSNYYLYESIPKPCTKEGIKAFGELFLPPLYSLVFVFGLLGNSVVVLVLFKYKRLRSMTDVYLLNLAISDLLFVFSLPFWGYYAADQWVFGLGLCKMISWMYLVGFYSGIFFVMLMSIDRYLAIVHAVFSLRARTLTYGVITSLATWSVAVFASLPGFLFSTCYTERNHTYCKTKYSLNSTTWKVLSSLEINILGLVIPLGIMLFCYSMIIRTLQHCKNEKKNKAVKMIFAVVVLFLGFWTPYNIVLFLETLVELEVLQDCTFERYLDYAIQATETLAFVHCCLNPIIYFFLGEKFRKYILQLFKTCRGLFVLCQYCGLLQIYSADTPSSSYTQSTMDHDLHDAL

[4] = target: Platelet-activating factor receptor (Homo sapiens, UniProt P25105); type: tissue-based; note: in other assays of this panel Not Active means under 50% inhibition at 10 µM
Cathepsin G = target: T3, Cathepsin G (Homo sapiens, UniProt P08311); type: tissue-based; details: neutrophil
T3 sequence (P08311 whole entry): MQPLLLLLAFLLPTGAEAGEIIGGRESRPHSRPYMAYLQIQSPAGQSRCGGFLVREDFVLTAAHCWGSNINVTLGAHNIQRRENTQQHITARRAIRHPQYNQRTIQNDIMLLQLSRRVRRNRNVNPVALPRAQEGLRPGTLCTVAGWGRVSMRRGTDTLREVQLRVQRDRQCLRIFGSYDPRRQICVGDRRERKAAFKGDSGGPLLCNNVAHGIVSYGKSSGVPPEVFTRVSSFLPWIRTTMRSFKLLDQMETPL

Estrogen receptor beta = Estrogen receptor beta (Homo sapiens, UniProt Q92731); details: sf9; note: in other assays of this panel Not Active means under 50% inhibition at 10 µM
Melanocortin receptor 4 = Melanocortin receptor 4 (Homo sapiens, UniProt P32245); type: cell membranes, Membrane; details: hek293; note: in other assays of this panel Not Active means under 50% inhibition at 10 µM
Sequence of Melanocortin receptor 4 (P32245 whole entry): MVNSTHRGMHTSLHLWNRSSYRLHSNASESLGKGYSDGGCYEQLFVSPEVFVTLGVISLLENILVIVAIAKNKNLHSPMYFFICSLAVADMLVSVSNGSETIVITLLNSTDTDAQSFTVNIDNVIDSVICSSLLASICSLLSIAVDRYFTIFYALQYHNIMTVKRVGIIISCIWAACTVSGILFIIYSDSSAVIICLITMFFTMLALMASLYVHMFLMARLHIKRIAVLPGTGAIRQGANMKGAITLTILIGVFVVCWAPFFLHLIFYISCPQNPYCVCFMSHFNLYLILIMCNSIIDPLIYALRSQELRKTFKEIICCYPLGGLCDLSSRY

Sequence of C-C chemokine receptor type 2 (P41597 whole entry): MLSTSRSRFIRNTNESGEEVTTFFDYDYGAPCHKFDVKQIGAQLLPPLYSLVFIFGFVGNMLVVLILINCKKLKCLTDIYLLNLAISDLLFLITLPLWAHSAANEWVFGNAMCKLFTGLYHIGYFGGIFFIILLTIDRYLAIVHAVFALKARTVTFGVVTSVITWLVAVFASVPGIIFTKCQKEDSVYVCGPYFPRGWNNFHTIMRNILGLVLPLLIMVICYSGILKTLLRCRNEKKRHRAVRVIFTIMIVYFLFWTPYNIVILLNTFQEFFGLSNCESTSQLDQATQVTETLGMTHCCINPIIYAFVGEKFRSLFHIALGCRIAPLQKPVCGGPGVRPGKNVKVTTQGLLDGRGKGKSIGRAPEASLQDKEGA
Sequence of Vasopressin V1a receptor (P37288 whole entry): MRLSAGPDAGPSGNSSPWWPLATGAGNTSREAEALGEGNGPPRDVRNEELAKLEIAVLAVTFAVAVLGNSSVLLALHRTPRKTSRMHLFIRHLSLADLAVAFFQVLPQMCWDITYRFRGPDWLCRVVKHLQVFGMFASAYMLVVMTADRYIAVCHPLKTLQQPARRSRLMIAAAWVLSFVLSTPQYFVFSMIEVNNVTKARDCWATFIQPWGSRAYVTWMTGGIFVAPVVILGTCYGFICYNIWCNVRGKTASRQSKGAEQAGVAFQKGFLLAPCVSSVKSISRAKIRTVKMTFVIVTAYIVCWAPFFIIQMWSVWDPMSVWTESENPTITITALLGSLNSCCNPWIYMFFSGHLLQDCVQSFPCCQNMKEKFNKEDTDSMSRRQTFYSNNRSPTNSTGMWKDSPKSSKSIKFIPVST
Sequence of Estrogen receptor beta (Q92731 whole entry): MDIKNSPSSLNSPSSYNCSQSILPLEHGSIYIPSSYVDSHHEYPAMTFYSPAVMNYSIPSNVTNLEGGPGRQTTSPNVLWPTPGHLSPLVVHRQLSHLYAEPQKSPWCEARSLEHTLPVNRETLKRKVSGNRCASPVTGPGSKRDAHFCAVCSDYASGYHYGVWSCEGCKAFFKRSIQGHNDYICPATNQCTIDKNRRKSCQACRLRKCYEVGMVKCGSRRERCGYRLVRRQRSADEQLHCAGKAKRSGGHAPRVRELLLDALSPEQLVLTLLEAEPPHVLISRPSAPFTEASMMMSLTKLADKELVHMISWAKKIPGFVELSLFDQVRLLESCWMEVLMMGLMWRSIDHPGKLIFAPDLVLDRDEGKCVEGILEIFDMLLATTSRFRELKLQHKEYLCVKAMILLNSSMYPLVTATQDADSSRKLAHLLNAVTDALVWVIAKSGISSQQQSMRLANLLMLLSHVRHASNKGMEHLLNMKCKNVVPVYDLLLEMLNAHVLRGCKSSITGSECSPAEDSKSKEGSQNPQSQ
Sequence of Platelet-activating factor receptor (P25105 whole entry): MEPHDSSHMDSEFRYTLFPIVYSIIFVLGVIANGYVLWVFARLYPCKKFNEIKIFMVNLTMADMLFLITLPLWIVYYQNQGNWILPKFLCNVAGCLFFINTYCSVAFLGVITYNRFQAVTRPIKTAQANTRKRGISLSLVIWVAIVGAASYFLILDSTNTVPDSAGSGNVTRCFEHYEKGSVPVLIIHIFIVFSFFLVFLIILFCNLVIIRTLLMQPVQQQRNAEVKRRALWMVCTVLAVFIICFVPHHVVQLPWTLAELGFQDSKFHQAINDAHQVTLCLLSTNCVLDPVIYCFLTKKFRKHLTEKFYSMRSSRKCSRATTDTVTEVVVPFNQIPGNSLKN

Row | Compound | IC50 ([1]; read-out: IC50) [nM] | Ki [1] [nM] | IC50 (Vasopressin V1a receptor) | IC50 (Carbonic anhydrase 2) | IC50 [2] | IC50 [3] | IC50 [4] | IC50 (Cathepsin G) | IC50 (Estrogen receptor beta) | IC50 (Melanocortin receptor 4) | IC50 ([1]; sf9) | Ki [3]
1 | Clc1ccc(COC(Cn2ccnc2)c2ccc(Cl)cc2Cl)c(Cl)c1 (stereo not given) [MICONAZOLE] | 3970 | 1490 | Not Active | Not Active | Not Active | Not Active | Not Active | Not Active | Not Active |  |  | 
2 | CC1CCC(NC(=O)N(CCCl)N=O)CC1 (stereo not given) [SEMUSTINE] | 4810 | 1800 | Not Active | Not Active | Not Active | Not Active | Not Active | Not Active | Not Active | Not Active |  | 
3 | O=C1C[C@@H]2OCC=C3CN4CC[C@]56c7ccccc7N1[C@H]5[C@H]2[C@H]3C[C@H]46 [STRYCHNINE] |  |  | Not Active | Not Active | Not Active | Not Active | Not Active | Not Active |  | Not Active | Not Active | 
4 | C[S+]([O-])c1ccc(-c2nc(-c3ccncc3)c(-c3ccc(F)cc3)[nH]2)cc1 (stereo not given) [SB-203580] |  |  | Not Active | Not Active | Not Active | Not Active | Not Active | Not Active | Not Active | Not Active | Not Active | 
5 | CC(=N)S [THIOACETAMIDE] |  |  | Not Active | Not Active | Not Active | Not Active | Not Active | Not Active | Not Active | Not Active | Not Active | 
6 | COC(=O)[C@H]1[C@H]2C[C@@H]3c4[nH]c5cc(OC)ccc5c4CCN3C[C@H]2C[C@@H](OC(=O)c2cc(OC)c(OC)c(OC)c2)[C@@H]1OC [RESERPINE] |  |  | Not Active | Not Active | Not Active | Not Active | Not Active | Not Active |  | Not Active | Not Active | 
7 | O=c1[nH]c(=O)n(C2CCCO2)cc1F (stereo not given) [TEGAFUR] |  |  | Not Active | Not Active | Not Active | Not Active | Not Active | Not Active | Not Active | Not Active | Not Active | 
8 | C[N+](C)(C)CCOC(=O)CCC(=O)OCC[N+](C)(C)C.[Cl-].[Cl-] [SUCCINYLCHOLINE CHLORIDE] |  |  | Not Active | Not Active | Not Active | Not Active | Not Active | Not Active | Not Active | Not Active | Not Active | 
9 | CCCCC(=O)N(Cc1ccc(-c2ccccc2-c2nnn[nH]2)cc1)[C@H](C(=O)O)C(C)C |  |  | Not Active | Not Active |  | Not Active | Not Active | Not Active | Not Active | Not Active | Not Active | 
10 | CN1CCN(C2=Nc3cc(Cl)ccc3Nc3ccccc32)CC1 [CLOZAPINE] |  |  | Not Active | Not Active | Not Active | Not Active | Not Active | Not Active | Not Active | Not Active |  | 
11 | Oc1ccc2c3c1O[C@H]1[C@@H](O)CC[C@@]4(O)[C@@H](C2)N(CC2CCC2)CC[C@]314 [NALBUPHINE] |  |  | Not Active | Not Active | Not Active | Not Active | Not Active | Not Active | Not Active | Not Active | Not Active | 
12 | CN(C)C(=O)C(CCN1CCC(O)(c2ccc(Cl)cc2)CC1)(c1ccccc1)c1ccccc1 [LOPERAMIDE] |  |  | Not Active | Not Active | Not Active | Not Active | Not Active | Not Active | Not Active | Not Active | Not Active | 
13 | O=C(O)c1ccccc1O [SALICYLIC ACID] |  |  | Not Active | Not Active | Not Active | Not Active | Not Active | Not Active |  | Not Active | Not Active | 
14 | Nc1ccc(S(=O)(=O)NC(=O)c2ccccc2)cc1 [SULFABENZAMIDE] |  |  | Not Active | Not Active | Not Active | Not Active | Not Active | Not Active | Not Active | Not Active | Not Active | 
15 | C[C@@](Cc1ccc(O)c(O)c1)(NN)C(=O)O.O [CARBIDOPA] |  |  | Not Active | Not Active | Not Active | Not Active | Not Active | Not Active |  | Not Active | Not Active | 
16 | CCCCCCCCNC(C)C(O)c1ccc(SC(C)C)cc1 (stereo not given) [SULOCTIDIL] | 2020 | 759 | Not Active | Not Active | Not Active | Not Active | Not Active | Not Active | Not Active | Not Active |  | 
17 | CN1CCN(CCCN2c3ccccc3Sc3ccc(C(F)(F)F)cc32)CC1 [TRIFLUOPERAZINE] |  |  | Not Active | Not Active | Not Active |  | Not Active | Not Active | Not Active | Not Active | Not Active | Not Active
18 | C[C@]12C=CC(=O)C=C1CC[C@@H]1[C@@H]2C(=O)C[C@@]2(C)[C@H]1CC[C@]2(O)C(=O)CO [PREDNISONE] |  |  | Not Active | Not Active | Not Active | Not Active | Not Active | Not Active | Not Active | Not Active | Not Active | 
19 | OCCOCCN1CCN(C2=Nc3ccccc3Sc3ccccc32)CC1 [QUETIAPINE] |  |  | Not Active | Not Active | Not Active | Not Active | Not Active | Not Active | Not Active | Not Active |  | 
20 | CC(C)NC[C@H](O)COc1cccc2ccccc12 [LEVOPROPRANOLOL] |  |  | Not Active | Not Active | Not Active | Not Active | Not Active | Not Active | Not Active | Not Active | Not Active | 
21 | O=C(O)CCCCC1CCSS1 (stereo not drawn) [LIPOIC ACID, ALPHA] |  |  | Not Active | Not Active | Not Active | Not Active | Not Active | Not Active | Not Active | Not Active | Not Active | 
22 | CC(C)NC[C@@H](O)COc1cccc2ccccc12 [DEXPROPRANOLOL] |  |  | Not Active | Not Active | Not Active | Not Active | Not Active | Not Active | Not Active | Not Active | Not Active | 
23 | Cc1ccc(C(=O)c2ccc(CC(=O)O)n2C)cc1 [TOLMETIN] |  |  | Not Active | Not Active | Not Active | Not Active | Not Active | Not Active | Not Active | Not Active | Not Active | 
24 | CN1[C@@H]2CC[C@H]1C[C@@H](OC(c1ccccc1)c1ccccc1)C2 [BENZTROPINE] |  |  | Not Active | Not Active | Not Active | Not Active | Not Active | Not Active | Not Active | Not Active |  | 
